Data from patent US10023592B2, “Bromodomain inhibitors” (Celgene Quanticel Research, Inc., priority 2013, dated 2018).
Like-named read-outs stand apart in the source and are kept apart here.

Legend:
[1] = tested on: Raji, human Burkitts lymphoma cells; assay: Cell-MTS proliferation assay, Raji; type: cell-based; conditions: 168 hr
Method: (§1) The Cell-MTS assay is a 7-day plate-based colorimetric assay which quantifies the amount of newly generated NADH in the presence or absence of test compound. The NADH level is used for the quantification of cancer cell proliferation.
(§2) Established cancer cell lines with a variety of driving mutations were obtained from American Type Culture Collection (ATCC) and routinely passaged according to ATCC protocols. For routine assay, these cells were seeded at densities which enabled ˜90% confluence after 7 days of culture. Raji, human Burkitts lymphoma cells, (cMYC) were seeded at 15,000 cells per 96-well. HL-60, human proleukemia cells, (NRAS, p16, p53, c-Myc amplified) were seeded at 5,000 cells per 96-well. NCI-H460, human non-small cell lung cancer cells, (KRAS, PIK3CA, STLK11, p16) were seeded at 3,000 cells per 96-well. 24 hr after plating, cells received an 11-point dilution of test compound with final concentration ranges from 100 μM to 2.0 nM. […] At the end of this incubation period, 80 μL of media is removed and 20 μL of CellTiter 96® AQueous Non-Radioactive Cell Proliferation Assay soln (Promega) was added. The cells were incubated until the OD490 was >0.6. IC50 values were calculated using the IDBS XLfit software package and include background subtracted OD490 values and normalization to DMSO controls. Cellular proliferation IC50 values were uploaded and archived using the Chem Biography Platform.

BRD4(BD1) = BRD4(BD1) (Homo sapiens (Human), UniProt O60885); assay: In vitro enzyme inhibition assay (BRD4 AlphaScreen); type: binding
How it was run: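 AlphaScreen proximity readout, using streptavidin donor and Ni-chelate acceptor beads at 5 μg/mL final, monitors biotin-H4 tetraacetylated peptide interaction with purified His-tagged BRD4.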

[2] = tested on: NCI-H460, human non-small cell lung cancer cells; assay: Cell-MTS proliferation assay, NCI-H460; type: cell-based; conditions: 168 hr
Method: as §1, §2

[3] = tested on: HL-60, human proleukemia cells; assay: Cell-MTS proliferation assay, HL-60; type: cell-based; conditions: 168 hr
Method: as §1, §2

[4] = Homo sapiens, Raji, Cell-MTS, class symbols A/B/C
[5] = Homo sapiens, NCI-H460, Cell-MTS, class symbols A/B/C
[6] = Homo sapiens, HL-60, Cell-MTS, class symbols A/B/C
[7] = Homo sapiens, Raji, Cell-MTS proliferation
[8] = Homo sapiens, NCI-H460, Cell-MTS proliferation
[9] = Homo sapiens, HL-60, Cell-MTS proliferation

Row | Compound | IC50 [1, 4] [nM] | IC50 (BRD4(BD1); class symbols A/B/C) [nM] | IC50 [2, 5] [nM] | IC50 [3, 6] [nM] | also measured
1 | 4-[5-(cyclopropylmethoxy)-2-methylsulfonylpyridin-4-yl]-7-fluoro-2-methylisoquinolin-1-one [Example 203] | – | – | – | – | IC50 ([1]; Cell-MTS proliferation): < 500 nM; IC50 (BRD4(BD1); in vitro enzyme inhibition assay): < 500 nM; IC50 ([2]; Cell-MTS proliferation): > 5000 nM; IC50 ([3]; Cell-MTS proliferation): < 500 nM
2 | CCS(=O)(=O)Nc1ccc(Cl)c(-c2cn(C)c(=O)c3ccc(-c4cnn(C)c4)cc23)c1 [Example 45, N-[4-chloro-3-[2-methyl-6-(1-methylpyrazol-4-yl)-1-oxoisoquinolin-4-yl]phenyl]ethanesulfonamide] | < 500 | < 500 | 500 to 5000 | < 500 | –
3 | Cn1cc(-c2ccc3c(=O)n(C)cc(-c4cc(S(C)(=O)=O)ccc4OCC4CC4)c3c2)cn1 [Example 46, 4-[2-(cyclopropylmethoxy)-5-methylsulfonylphenyl]-2-methyl-6-(1-methylpyrazol-4-yl)isoquinolin-1-one] | < 500 | < 500 | > 5000 | < 500 | –
4 | CCS(=O)(=O)Nc1ccc(Cl)c(-c2cn(C)c(=O)c3ccc(F)cc23)c1 [Example 50, N-[4-chloro-3-(6-fluoro-2-methyl-1-oxoisoquinolin-4-yl)phenyl] ethanesulfonamide] | 500 to 5000 | < 500 | 500 to 5000 | < 500 | –
5 | COc1ccc(-c2cn(C)c(=O)c3cnccc23)cc1S(=O)(=O)NCc1ccccc1 [Example 54, N-benzyl-2-methoxy-5-(2-methyl-1-oxo-2,7-naphthyridin-4-yl) benzenesulfonamide] | – | > 5000 | – | – | IC50 ([1]; Cell-MTS, class symbols A/B/C): > 5000 nM; IC50 ([2]; Cell-MTS, class symbols A/B/C): > 5000 nM; IC50 ([3]; Cell-MTS, class symbols A/B/C): 500 to 5000 nM
6 | CCS(=O)(=O)Nc1ccc(Oc2ccc(F)cc2F)c(-c2cn(C)c(=O)c3cnccc23)c1 [Example 57, N-[4-(2,4-difluorophenoxy)-3-(2-methyl-1-oxo-2,7-naphthyridin-4-yl)phenyl]ethanesulfonamide] | < 500 | < 500 | > 5000 | < 500 | –
7 | COc1ccc(-c2cn(C)c(=O)c3cc(F)ccc23)cc1S(=O)(=O)NCc1ccccc1 [Example 60, N-benzyl-5-(7-fluoro-2-methyl-1-oxoisoquinolin-4-yl)-2-methoxybenzenesulfonamide] | < 500 | 500 to 5000 | > 5000 | 500 to 5000 | –
8 | CCS(=O)(=O)c1cccc(-c2cn(C)c(=O)c3cc(F)ccc23)c1 [Example 63, 4-(3-ethylsulfonylphenyl)-7-fluoro-2-methylisoquinolin-1-one] | 500 to 5000 | 500 to 5000 | > 5000 | 500 to 5000 | –
9 | CCS(=O)(=O)Nc1cccc(-c2cn(C)c(=O)c3ccc(-c4ccc(C)nc4)cc23)c1 [Example 72, N-[3-[2-methyl-6-(6-methylpyridin-3-yl)-1-oxoisoquinolin-4-yl]phenyl]ethanesulfonamide] | < 500 | < 500 | 500 to 5000 | < 500 | –
10 | CCS(=O)(=O)c1ccc(OCC2CC2)c(-c2cn(C)c(=O)c3ccc(-c4cnn(C)c4)cc23)c1 [Example 82, 4-[2-(cyclopropylmethoxy)-5-ethylsulfonylphenyl]-2-methyl-6-(1-methylpyrazol-4-yl)isoquinolin-1-one] | < 500 | < 500 | 500 to 5000 | < 500 | –
11 | CCS(=O)(=O)Nc1cc(-c2cn(C)c(=O)c3ccc(-c4cnn(C)c4)cc23)c(OC)cc1F [Example 86, N-[2-fluoro-4-methoxy-5-[2-methyl-6-(1-methylpyrazol-4-yl)-1-oxoisoquinolin-4-yl]phenyl]ethanesulfonamide] | < 500 | < 500 | 500 to 5000 | < 500 | –
12 | CCS(=O)(=O)Nc1cccc(-c2cn(C)c(=O)c3ccc(-c4ccccn4)cc23)c1 [Example 87, N-[3-(2-methyl-1-oxo-6-pyridin-2-ylisoquinolin-4-yl)phenyl]ethanesulfonamide] | 500 to 5000 | 500 to 5000 | > 5000 | < 500 | –
13 | COc1cc(F)c(CS(C)(=O)=O)cc1-c1cn(C)c(=O)c2ccc(-c3cnn(C)c3)cc12 [Example 88, 4-[4-fluoro-2-methoxy-5-(methylsulfonylmethyl)phenyl]-2-methyl-6-(1-methylpyrazol-4-yl)isoquinolin-1-one] | < 500 | < 500 | > 5000 | < 500 | –
14 | Cn1cc(-c2cc(S(C)(=O)=O)ccc2OCC2CC2)c2ccccc2c1=O [Example 89, 4-[2-(cyclopropylmethoxy)-5-methylsulfonylphenyl]-2-methylisoquinolin-1-one] | < 500 | < 500 | > 5000 | < 500 | –
15 | Cn1cc(-c2cc(S(C)(=O)=O)ccc2OCC2CC2)c2ccc(F)cc2c1=O [Example 91, 4-[2-(cyclopropylmethoxy)-5-methylsulfonylphenyl]-7-fluoro-2-methyl-isoquinolin-1-one] | < 500 | < 500 | > 5000 | < 500 | –
16 | Cn1cc(-c2cc(S(C)(=O)=O)ccc2Oc2ccc(F)cc2F)c2ccccc2c1=O [Example 92, 4-[2-(2,4-difluorophenoxy)-5-methylsulfonylphenyl]-2-methylisoquinolin-1-one] | < 500 | < 500 | > 5000 | < 500 | –
17 | CCS(=O)(=O)Nc1ccc(Oc2ccc(F)cc2F)c(-c2cn(C)c(=O)c3ccccc23)c1 [Example 93, N-[4-(2,4-difluorophenoxy)-3-(2-methyl-1-oxoisoquinolin-4-yl)phenyl]ethanesulfonamide] | < 500 | < 500 | > 5000 | < 500 | –
18 | Cn1cc(-c2cc(S(C)(=O)=O)ccc2OCC2CC2)ccc1=O [Example 98, 5-[2-(cyclopropylmethoxy)-5-methylsulfonylphenyl]-1-methylpyridin-2-one] | 500 to 5000 | 500 to 5000 | > 5000 | 500 to 5000 | –
19 | CCS(=O)(=O)Nc1ccc(Oc2ccc(F)cc2F)c(-c2ccc(=O)n(C)c2)c1 [Example 99, N-[4-(2,4-difluorophenoxy)-3-(1-methyl-6-oxopyridin-3-yl)phenyl]ethanesulfonamide] | < 500 | < 500 | > 5000 | < 500 | –
20 | Cn1cc(-c2cc(NS(C)(=O)=O)ccc2Oc2ccc(F)cc2F)ccc1=O [Example 100, N-[4-(2,4-difluorophenoxy)-3-(1-methyl-6-oxopyridin-3-yl)phenyl]methanesulfonamide] | < 500 | – | > 5000 | < 500 | IC50 (BRD4(BD1)): < 500 nM
21 | Cc1cc(=O)n(C)cc1-c1cc(NS(C)(=O)=O)ccc1Oc1ccc(F)cc1F [Example 101, N-[4-(2,4-difluorophenoxy)-3-(1,4-dimethyl-6-oxopyridin-3-yl)phenyl]methanesulfonamide] | < 500 | < 500 | > 5000 | < 500 | –
22 | CCS(=O)(=O)c1ccc(NCC2CC2)c(-c2cc(Cl)c(=O)n(C)c2)c1 [Example 275] | – | – | – | – | IC50 [1, 7]: < 500 nM; IC50 [2, 8]: > 5000 nM; IC50 [3, 9]: < 500 nM
23 | CCS(=O)(=O)c1ccc(OCC2CC2)c(-c2cn(C)c(=O)c3c2OCC(=O)N3)c1 [Example 365, 8-[2-(cyclopropylmethoxy)-5-ethylsulfonylphenyl]-6-methyl-4H-pyrido[4,3-b][1,4]oxazine-3,5-dione] | – | – | – | – | IC50 [1, 7]: < 500 nM; IC50 [2, 8]: > 5000 nM; IC50 [3, 9]: < 500 nM
